The values below come from US20240024488A1, “COMPOUNDS AND USES THEREOF” (Foghorn Therapeutics Inc., priority 2020, published 2024).

Some results are limits rather than exact numbers.

For assay [1], the target named is T1, HiBit-BRM fusion protein (Homo sapiens, UniProt P51531).
T1 construct: expressed in transfected cells
In words: HiBiT-BRM cell-based degradation assay (Nano-Glo HiBiT Lytic Detection, 24 h). As to conditions: HeLa cell line expressing HiBiT-BRM; for DC50: read-out: BRM HiBit Degradation IC50. The procedure, abridged: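 HeLa cells stably expressing HiBiT-BRM were dosed with compounds (10-point 3-fold dilutions, 30 μM final top dose, duplicate) for 24 h. HiBiT signal was read by lytic LgBiT complementation luminescence. Percent degradation was normalised to DMSO (high control) and 2 μM of a reference BRM/BRG1 degrader (low control).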

For assay [2], the target named is T2, HiBit-BRG1 fusion protein (Homo sapiens, UniProt P51532).
T2 construct: expressed in transfected cells
T2 sequence (P51532 whole entry, the tested form may be a part): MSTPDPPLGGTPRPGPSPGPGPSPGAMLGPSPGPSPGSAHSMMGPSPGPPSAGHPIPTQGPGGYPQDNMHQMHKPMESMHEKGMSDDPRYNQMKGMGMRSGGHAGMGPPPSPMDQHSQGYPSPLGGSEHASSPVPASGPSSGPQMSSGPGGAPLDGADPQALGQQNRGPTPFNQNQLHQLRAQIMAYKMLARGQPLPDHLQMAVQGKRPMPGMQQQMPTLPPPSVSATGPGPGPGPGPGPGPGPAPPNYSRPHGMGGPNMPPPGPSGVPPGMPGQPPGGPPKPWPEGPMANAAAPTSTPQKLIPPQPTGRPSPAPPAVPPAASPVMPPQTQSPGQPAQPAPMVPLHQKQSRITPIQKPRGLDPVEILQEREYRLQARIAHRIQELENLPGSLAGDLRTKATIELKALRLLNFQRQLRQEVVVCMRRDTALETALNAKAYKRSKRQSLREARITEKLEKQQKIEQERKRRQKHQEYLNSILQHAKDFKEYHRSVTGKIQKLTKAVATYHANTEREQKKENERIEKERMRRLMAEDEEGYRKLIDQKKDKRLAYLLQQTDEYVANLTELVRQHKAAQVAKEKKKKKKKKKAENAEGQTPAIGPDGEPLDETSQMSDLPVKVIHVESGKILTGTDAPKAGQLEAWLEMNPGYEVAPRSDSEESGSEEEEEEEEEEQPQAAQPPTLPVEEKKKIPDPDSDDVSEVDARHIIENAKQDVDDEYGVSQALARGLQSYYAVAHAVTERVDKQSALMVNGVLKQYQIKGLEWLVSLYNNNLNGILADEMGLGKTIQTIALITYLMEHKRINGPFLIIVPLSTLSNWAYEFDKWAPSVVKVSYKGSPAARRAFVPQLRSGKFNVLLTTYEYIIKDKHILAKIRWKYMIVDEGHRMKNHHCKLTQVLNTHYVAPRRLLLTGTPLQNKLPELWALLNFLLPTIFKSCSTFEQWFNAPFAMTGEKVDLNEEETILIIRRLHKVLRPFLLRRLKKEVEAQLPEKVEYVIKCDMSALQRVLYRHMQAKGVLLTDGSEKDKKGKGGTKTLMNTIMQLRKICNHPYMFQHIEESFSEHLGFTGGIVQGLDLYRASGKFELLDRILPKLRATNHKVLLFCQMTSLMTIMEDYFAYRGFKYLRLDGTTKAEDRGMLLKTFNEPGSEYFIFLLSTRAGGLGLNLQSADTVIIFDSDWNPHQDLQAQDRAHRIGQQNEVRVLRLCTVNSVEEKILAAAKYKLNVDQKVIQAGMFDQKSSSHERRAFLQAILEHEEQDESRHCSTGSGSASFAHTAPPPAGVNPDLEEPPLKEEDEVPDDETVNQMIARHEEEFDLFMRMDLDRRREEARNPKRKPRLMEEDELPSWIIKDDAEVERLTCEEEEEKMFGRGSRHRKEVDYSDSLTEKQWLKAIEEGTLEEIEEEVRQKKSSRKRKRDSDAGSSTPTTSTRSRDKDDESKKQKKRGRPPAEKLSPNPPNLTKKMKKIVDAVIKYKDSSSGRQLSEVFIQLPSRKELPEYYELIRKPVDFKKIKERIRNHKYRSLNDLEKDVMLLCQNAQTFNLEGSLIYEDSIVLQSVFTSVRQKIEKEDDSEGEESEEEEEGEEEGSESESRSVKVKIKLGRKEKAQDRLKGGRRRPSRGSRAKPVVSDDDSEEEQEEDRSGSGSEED
In words: HiBiT-BRG1 cell-based degradation assay (Nano-Glo HiBiT Lytic Detection, 24 h). As to conditions: HeLa cell line expressing HiBit-BRG1 and LgBit; for Dmax: read-out: BRG1 HiBit Degradation Maximum (%); for DC50: read-out: BRMG1 HiBit Degradation IC50. The procedure, abridged: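 HeLa cells stably expressing HiBiT-BRG1 plus LgBit, 5000/well, treated 24 h, then lysed with Nano-Glo HiBiT lytic reagent and luminescence read. % degradation normalised between DMSO (high control) and 2 μM reference BRM/BRG1 degrader (low control).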

T1 sequence (P51531 whole entry, the tested form may be a part): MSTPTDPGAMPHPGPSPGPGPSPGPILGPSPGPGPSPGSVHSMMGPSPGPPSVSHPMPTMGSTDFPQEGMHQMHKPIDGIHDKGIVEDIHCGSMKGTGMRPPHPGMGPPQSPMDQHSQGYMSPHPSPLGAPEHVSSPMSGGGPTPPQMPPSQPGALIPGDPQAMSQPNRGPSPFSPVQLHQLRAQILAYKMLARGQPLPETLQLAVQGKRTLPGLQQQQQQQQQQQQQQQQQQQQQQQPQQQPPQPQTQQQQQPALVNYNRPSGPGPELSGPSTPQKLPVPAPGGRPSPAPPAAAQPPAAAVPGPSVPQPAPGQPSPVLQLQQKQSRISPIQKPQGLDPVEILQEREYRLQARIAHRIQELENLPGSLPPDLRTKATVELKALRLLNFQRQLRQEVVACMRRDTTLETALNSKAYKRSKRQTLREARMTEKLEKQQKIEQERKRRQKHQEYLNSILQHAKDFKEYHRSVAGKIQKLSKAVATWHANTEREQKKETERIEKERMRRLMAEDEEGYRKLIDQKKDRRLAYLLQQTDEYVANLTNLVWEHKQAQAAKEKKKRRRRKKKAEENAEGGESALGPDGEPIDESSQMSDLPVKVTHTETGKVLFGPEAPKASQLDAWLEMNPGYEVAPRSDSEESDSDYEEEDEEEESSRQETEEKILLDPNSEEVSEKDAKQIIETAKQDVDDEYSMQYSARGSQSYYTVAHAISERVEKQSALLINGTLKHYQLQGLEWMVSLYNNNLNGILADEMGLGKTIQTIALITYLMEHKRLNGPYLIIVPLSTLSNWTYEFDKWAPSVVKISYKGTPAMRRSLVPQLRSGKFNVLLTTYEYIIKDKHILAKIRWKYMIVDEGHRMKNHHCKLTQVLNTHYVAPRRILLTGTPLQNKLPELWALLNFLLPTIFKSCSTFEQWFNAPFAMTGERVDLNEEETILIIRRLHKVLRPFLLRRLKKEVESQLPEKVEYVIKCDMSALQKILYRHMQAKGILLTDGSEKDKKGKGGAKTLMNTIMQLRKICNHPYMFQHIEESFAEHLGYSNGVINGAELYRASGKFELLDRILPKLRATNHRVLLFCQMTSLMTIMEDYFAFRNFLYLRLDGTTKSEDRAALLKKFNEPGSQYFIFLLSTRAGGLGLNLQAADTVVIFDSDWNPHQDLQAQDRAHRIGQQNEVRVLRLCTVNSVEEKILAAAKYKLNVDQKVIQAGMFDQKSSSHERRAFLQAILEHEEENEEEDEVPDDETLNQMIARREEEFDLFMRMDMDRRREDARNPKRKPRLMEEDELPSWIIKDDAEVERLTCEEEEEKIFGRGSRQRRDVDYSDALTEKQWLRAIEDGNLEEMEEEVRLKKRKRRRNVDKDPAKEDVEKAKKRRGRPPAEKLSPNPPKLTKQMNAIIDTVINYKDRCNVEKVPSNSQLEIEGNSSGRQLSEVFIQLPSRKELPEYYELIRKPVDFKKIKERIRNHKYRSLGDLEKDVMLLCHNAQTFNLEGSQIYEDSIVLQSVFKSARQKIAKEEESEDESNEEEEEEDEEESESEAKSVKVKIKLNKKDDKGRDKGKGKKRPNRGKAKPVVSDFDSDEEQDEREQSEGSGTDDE

Consider `Cc1ncsc1-c1ccc([C@H](C)NC(=O)[C@@H]2C[C@@H](O)CN2C(=O)[C@@H](c2cc(OCCCN3C[C@@H]4[C@H](C3)[C@H]4c3cc4cc(-c5ccccc5O)nnc4[nH]3)no2)C(C)C)cc1` (racemic) [Compound 216, (2S,4R)-4-hydroxy-1-((R)-2-(3-(3-((1R,5S,6R)-6-(3-(2-hydroxyphenyl)-7H-pyrrolo[2,3-c]pyridazin-6-yl)-3-azabicyclo[3.1.0]hexan-3-yl)propoxy)isoxazol-5-yl)-3-methylbutanoyl)-N-((S)-1-(4-(4-methylthiazol-5-yl)phenyl)ethyl)pyrrolidine-2-carboxamide], for which, in assay [1], the “BRM HiBit Degradation Maximum (%)” value was “A (“A” indicates maximum degradation ≥ 75%)” and the DC50 is greater than 100 nM. Also, the Dmax in assay [2] was less than 50%.
`O=C1CCC(N2C(=O)c3ccc(N4CCN(CCC(=O)N5CC(c6cc7cc(-c8ccccc8O)nnc7[nH]6)C5)CC4)cc3C2=O)C(=O)N1` (stereo not shown) [Compound 26, 2-(2,6-dioxopiperidin-3-yl)-5-(4-(3-(3-(3-(2-hydroxyphenyl)-7H-pyrrolo[2,3-c]pyridazin-6-yl)azetidin-1-yl)-3-oxopropyl)piperazin-1-yl)isoindoline-1,3-dione]: in assay [1], the “BRM HiBit Degradation Maximum (%)” value is listed as “C (“C” indicates maximum degradation < 50%)”. The Dmax in assay [2] is less than 50%.
Take `Cc1ncsc1-c1ccc(CNC(=O)[C@@H]2C[C@@H](O)CN2C(=O)[C@@H](NC(=O)CNC(=O)[C@@H]2CCc3[nH]c4nnc(-c5ccccc5O)cc4c3C2)C(C)(C)C)cc1` (single isomer, unassigned) [Compound 197]: in assay [1], the “BRM HiBit Degradation Maximum (%)” value is “C (“C” indicates maximum degradation < 50%)”. Further, the Dmax in assay [2] was less than 50%.
In the case of `Cc1ncsc1-c1ccc(CNC(=O)[C@@H]2C[C@@H](O)CN2C(=O)[C@@H](NC(=O)C(=O)N2CC(c3cc4cc(-c5ccccc5O)nnc4[nH]3)C2)C(C)(C)C)cc1` (racemic) [Compound 306, (2S,4R)-4-hydroxy-1-((S)-2-(2-(3-(3-(2-hydroxyphenyl)-7H-pyrrolo[2,3-c]pyridazin-6-yl)azetidin-1-yl)-2-oxoacetamido)-3,3-dimethylbutanoyl)-N-(4-(4-methylthiazol-5-yl)benzyl)pyrrolidine-2-carboxamide], the “BRM HiBit Degradation Maximum (%)” value in assay [1] is “C (“C” indicates maximum degradation < 50%)”. In addition, the Dmax in assay [2] was less than 50%.
For `O=C1CCC(N2C(=O)c3cccc(NCCOCCOCCC(=O)N4CC(c5cc6cc(-c7ccccc7O)nnc6[nH]5)C4)c3C2=O)C(=O)N1` (stereo not shown) [Compound 27, 2-(2,6-dioxopiperidin-3-yl)-4-((2-(2-(3-(3-(3-(2-hydroxyphenyl)-7H-pyrrolo[2,3-c]pyridazin-6-yl)azetidin-1-yl)-3-oxopropoxy)ethoxy)ethyl)amino)isoindoline-1,3-dione], in assay [1], the “BRM HiBit Degradation Maximum (%)” value is recorded as “C (“C” indicates maximum degradation < 50%)”. The Dmax in assay [2] is less than 50%.
Take `Cc1ncsc1-c1ccc([C@H](C)NC(=O)[C@@H]2C[C@@H](O)CN2C(=O)[C@@H](c2cc(OCCN3CCC(O)(c4cc5cc(-c6ccccc6O)nnc5[nH]4)CC3)no2)C(C)C)cc1` (racemic) [Compound 277, (2S,4R)-4-hydroxy-1-((R)-2-(3-(2-(4-hydroxy-4-(3-(2-hydroxyphenyl)-7H-pyrrolo[2,3-c]pyridazin-6-yl)piperidin-1-yl)ethoxy)isoxazol-5-yl)-3-methylbutanoyl)-N-((S)-1-(4-(4-methylthiazol-5-yl)phenyl)ethyl)pyrrolidine-2-carboxamide]: in assay [1], the “BRM HiBit Degradation Maximum (%)” value is listed as “A (“A” indicates maximum degradation ≥ 75%)” and the DC50 is greater than 100 nM. For the same molecule, the Dmax in assay [2] was less than 50%.
As for `Cc1ncsc1-c1ccc(CNC(=O)[C@@H]2C[C@@H](O)CN2C(=O)[C@@H](NC(=O)CCCCCCCCCCCCCCCCC(=O)N2CC(c3c[nH]c4nnc(-c5ccccc5O)cc34)C2)C(C)(C)C)cc1` [Compound 38, (2S,4R)-4-hydroxy-1-((S)-2-(18-(3-(3-(2-hydroxyphenyl)-7H-pyrrolo[2,3-c]pyridazin-5-yl)azetidin-1-yl)-18-oxooctadecanamido)-3,3-dimethylbutanoyl)-N-(4-(4-methylthiazol-5-yl)benzyl)pyrrolidine-2-carboxamide], in assay [1], the “BRM HiBit Degradation Maximum (%)” value is “C (“C” indicates maximum degradation < 50%)”. The Dmax in assay [2] is less than 50%.
Turning to `Cc1ncsc1-c1ccc([C@H](C)NC(=O)[C@@H]2C[C@@H](O)CN2C(=O)[C@@H](c2cc(N3CC(CN4CC(c5cc6cc(-c7ccccc7O)nnc6[nH]5)C4)C3)no2)C(C)C)cc1` (single isomer, unassigned) [Compound 163], in assay [1], the “BRM HiBit Degradation Maximum (%)” value was “A (“A” indicates maximum degradation ≥ 75%)” and the DC50 was greater than 10 nM. Also, in assay [2], the Dmax was greater than 50% and the DC50 was greater than 100 nM.
As to `Cc1ncsc1-c1ccc([C@H](C)NC(=O)[C@@H]2C[C@@H](O)CN2C(=O)[C@@H](c2cc(OCCNC(=O)[C@H]3C[C@]4(Cc5cc(-c6ccccc6O)nnc5N4)C3)no2)C(C)C)cc1` (racemic) [Compound 71, (1S,3r)-N-(2-((5-((R)-1-((2S,4R)-4-hydroxy-2-(((S)-1-(4-(4-methylthiazol-5-yl)phenyl)ethyl)carbamoyl)pyrrolidin-1-yl)-3-methyl-1-oxobutan-2-yl)isoxazol-3-yl)oxy)ethyl)-3′-(2-hydroxyphenyl)-5′,7′-dihydrospiro[cyclobutane-1,6′-pyrrolo[2,3-c]pyridazine]-3-carboxamide], in assay [1], the “BRM HiBit Degradation Maximum (%)” value is on record as “A (“A” indicates maximum degradation ≥ 75%)” and the DC50 was greater than 100 nM. The Dmax in assay [2] was less than 50%.
As to `Cc1ncsc1-c1ccc([C@H](C)NC(=O)[C@@H]2C[C@@H](O)CN2C(=O)C(c2cc(OCCN[C@]3(C(=O)O)CCc4[nH]c5nnc(-c6ccccc6O)cc5c4C3)no2)C(C)C)cc1` (single isomer, unassigned) [Compound 91], in assay [1], the “BRM HiBit Degradation Maximum (%)” value is “C (“C” indicates maximum degradation < 50%)”. Moreover, in assay [2], the Dmax is less than 50%.
As to `Cc1ncsc1-c1ccc([C@H](C)NC(=O)[C@@H]2C[C@@H](O)CN2C(=O)[C@@H](c2cc(OCCNC(=O)c3cc4cc(-c5ccccc5O)nnc4[nH]3)no2)C(C)C)cc1` (racemic) [Compound 239, N-(2-((5-((R)-1-((2S,4R)-4-hydroxy-2-(((S)-1-(4-(4-methylthiazol-5-yl)phenyl)ethyl)carbamoyl)pyrrolidin-1-yl)-3-methyl-1-oxobutan-2-yl)isoxazol-3-yl)oxy)ethyl)-3-(2-hydroxyphenyl)-7H-pyrrolo[2,3-c]pyridazine-6-carboxamide], in assay [1], the “BRM HiBit Degradation Maximum (%)” value is listed as “A (“A” indicates maximum degradation ≥ 75%)” and the DC50 is greater than 100 nM. Besides, the Dmax in assay [2] is less than 50%.
With `Cc1ncsc1-c1ccc([C@H](C)NC(=O)[C@@H]2C[C@@H](O)CN2C(=O)[C@@H](c2cc(OCC(=O)N[C@H]3CCc4[nH]c5nnc(-c6ccccc6O)cc5c4C3)no2)C(C)C)cc1` (single isomer, unassigned) [Compound 168], in assay [1], the “BRM HiBit Degradation Maximum (%)” value is given as “A (“A” indicates maximum degradation ≥ 75%)” and the DC50 is greater than 10 nM. The Dmax in assay [2] is less than 50%.
Take `Cc1ncsc1-c1ccc(CNC(=O)[C@@H]2C[C@@H](O)CN2C(=O)[C@@H](NC(=O)CCCCCCCCCCCCCCCC(=O)N2CC(c3c[nH]c4nnc(-c5ccccc5O)cc34)C2)C(C)(C)C)cc1` [Compound 42, (2S,4R)-4-hydroxy-1-((S)-2-(17-(3-(3-(2-hydroxyphenyl)-7H-pyrrolo[2,3-c]pyridazin-5-yl)azetidin-1-yl)-17-oxoheptadecanamido)-3,3-dimethylbutanoyl)-N-(4-(4-methylthiazol-5-yl)benzyl)pyrrolidine-2-carboxamide]: in assay [1], the “BRM HiBit Degradation Maximum (%)” value is “C (“C” indicates maximum degradation < 50%)”. The Dmax in assay [2] is less than 50%.
In the case of `Cc1ncsc1-c1ccc([C@H](C)NC(=O)[C@@H]2C[C@@H](O)CN2C(=O)[C@@H](NC(=O)CCCCCCCCCCC(=O)N2CC(c3cc4cc(-c5ccccc5O)nnc4[nH]3)C2)C(C)(C)C)cc1` [Compound 13, (2S,4R)-4-hydroxy-1-((S)-2-(12-(3-(3-(2-hydroxyphenyl)-7H-pyrrolo[2,3-c]pyridazin-6-yl)azetidin-1-yl)-12-oxododecanamido)-3,3-dimethylbutanoyl)-N-((S)-1-(4-(4-methylthiazol-5-yl)phenyl)ethyl)pyrrolidine-2-carboxamide], in assay [1], the “BRM HiBit Degradation Maximum (%)” value is listed as “A (“A” indicates maximum degradation ≥ 75%)” and the DC50 is greater than 100 nM. Besides, the Dmax in assay [2] was less than 50%.
On to `Cc1ncsc1-c1ccc([C@H](C)NC(=O)[C@@H]2C[C@@H](O)CN2C(=O)[C@@H](c2cc(OCCCN3C[C@@H]4[C@H](C3)[C@H]4c3c(C)[nH]c4nnc(-c5ccccc5O)cc34)no2)C(C)C)cc1` (racemic) [Compound 128, (2S,4R)-4-hydroxy-1-((R)-2-(3-(3-((1R,5S,6S)-6-(3-(2-hydroxyphenyl)-6-methyl-7H-pyrrolo[2,3-c]pyridazin-5-yl)-3-azabicyclo[3.1.0]hexan-3-yl)propoxy)isoxazol-5-yl)-3-methylbutanoyl)-N-((S)-1-(4-(4-methylthiazol-5-yl)phenyl)ethyl)pyrrolidine-2-carboxamide], for which, in assay [1], the “BRM HiBit Degradation Maximum (%)” value was “A (“A” indicates maximum degradation ≥ 75%)” and the DC50 is less than 10 nM. Also, in assay [2], the Dmax is greater than 75% and the DC50 is greater than 10 nM.
